In US20180244611A1, “Modulators of the Cystic Fibrosis Transmembrane Conductance Regulator Protein and Methods of Use” (AbbVie S.à.r.l., priority 2017, published 2018):

How the values were obtained:
F508delCFTR [1] = biological target: T1, F508delCFTR (Homo sapiens, UniProt P13569, DEL508-508); experiment: Cell Surface Expression-Horse Radish Peroxidase (CSE-HRP) assay, test compound with co-corrector; assay type: cell-based; conditions: with 2 μM co-corrector; for Maximum % activity (with co-corrector): maximum at any tested concentration, normalized to positive control;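 as to Maximum % activity (with co-corrector): percent of 2 µM positive control corrector over DMSO; co-corrector is that same compound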
T1 construct: expressed in transfected cells; host or cells: CFBE41o- human lung-derived epithelial cells (CFBE41o-F508delCFTR-HRP), doxycycline-inducible
Procedure, shortened: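 CFBE41o- cells expressing F508delCFTR with HRP in the fourth exofacial loop, induced with 0.5 μg/mL doxycycline for 72 h, then treated 18-24 h at 33° C. with compound (8 points, top 20 μM, 3-fold) plus 2 μM co-corrector. Surface HRP read by luminol luminescence; activity normalised to positive control, EC50 from variable-slope sigmoidal fit.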

F508delCFTR [2] = biological target: T1, F508delCFTR; experiment: Cell Surface Expression-Horse Radish Peroxidase (CSE-HRP) assay, test compound without co-corrector; assay type: cell-based; conditions: for Emax: maximum at any tested concentration, normalized to positive control, without co-corrector; for EC50: test compound without co-corrector;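 as to Emax: percent of on-plate 2 µM positive control corrector response over DMSO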
Procedure, shortened: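 CFBE41o- cells expressing F508delCFTR with HRP in the fourth exofacial loop, induced with 0.5 μg/mL doxycycline for 72 h at 37° C, then exposed to compound alone for 18-24 h at 33° C, 8-point 3-fold series from 20 μM. Surface HRP read by luminol luminescence, normalized to positive corrector control versus DMSO; EC50 from variable-slope sigmoidal fit of three replicate plates.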

T1 sequence (P13569 with tags, fused parts or gaps DEL508-508): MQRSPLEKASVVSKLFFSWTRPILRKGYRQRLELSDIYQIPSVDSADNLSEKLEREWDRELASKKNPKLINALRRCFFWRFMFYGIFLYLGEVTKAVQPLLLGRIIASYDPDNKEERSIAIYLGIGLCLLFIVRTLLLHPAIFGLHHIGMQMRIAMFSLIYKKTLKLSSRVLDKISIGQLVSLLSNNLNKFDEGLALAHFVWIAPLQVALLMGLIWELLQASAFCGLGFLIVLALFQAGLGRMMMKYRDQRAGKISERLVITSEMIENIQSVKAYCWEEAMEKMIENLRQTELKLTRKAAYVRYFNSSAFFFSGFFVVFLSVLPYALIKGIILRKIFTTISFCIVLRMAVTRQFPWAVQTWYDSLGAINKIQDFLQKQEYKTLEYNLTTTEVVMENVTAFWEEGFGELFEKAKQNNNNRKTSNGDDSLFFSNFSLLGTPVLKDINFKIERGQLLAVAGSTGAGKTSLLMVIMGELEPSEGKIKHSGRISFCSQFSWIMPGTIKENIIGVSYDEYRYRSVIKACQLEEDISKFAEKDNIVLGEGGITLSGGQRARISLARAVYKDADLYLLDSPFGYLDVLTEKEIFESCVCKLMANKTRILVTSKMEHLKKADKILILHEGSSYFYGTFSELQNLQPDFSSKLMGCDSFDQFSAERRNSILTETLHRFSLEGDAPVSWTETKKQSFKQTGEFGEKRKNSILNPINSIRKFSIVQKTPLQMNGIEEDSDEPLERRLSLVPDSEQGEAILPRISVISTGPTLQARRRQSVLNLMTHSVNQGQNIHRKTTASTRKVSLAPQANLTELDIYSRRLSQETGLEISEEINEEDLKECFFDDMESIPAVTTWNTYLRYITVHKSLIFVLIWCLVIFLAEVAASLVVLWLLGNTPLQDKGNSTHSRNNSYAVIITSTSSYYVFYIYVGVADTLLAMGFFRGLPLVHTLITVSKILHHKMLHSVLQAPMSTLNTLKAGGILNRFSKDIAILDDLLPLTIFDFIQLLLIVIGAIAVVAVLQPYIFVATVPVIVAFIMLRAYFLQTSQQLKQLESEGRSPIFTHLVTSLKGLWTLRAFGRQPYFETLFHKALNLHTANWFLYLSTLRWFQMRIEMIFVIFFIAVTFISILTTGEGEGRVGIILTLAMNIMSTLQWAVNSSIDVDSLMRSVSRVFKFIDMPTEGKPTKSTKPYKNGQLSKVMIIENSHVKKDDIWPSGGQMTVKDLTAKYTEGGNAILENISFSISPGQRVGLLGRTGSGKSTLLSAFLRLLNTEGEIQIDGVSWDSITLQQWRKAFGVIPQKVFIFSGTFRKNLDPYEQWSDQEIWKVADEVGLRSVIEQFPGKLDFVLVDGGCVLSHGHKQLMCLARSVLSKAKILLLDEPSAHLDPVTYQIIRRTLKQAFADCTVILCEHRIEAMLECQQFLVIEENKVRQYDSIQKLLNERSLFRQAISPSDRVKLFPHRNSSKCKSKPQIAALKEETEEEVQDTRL

| SMILES | Maximum % activity (with co-corrector) (F508delCFTR [1]) | EC50 (F508delCFTR [1]) | Emax (F508delCFTR [2]) | EC50 (F508delCFTR [2]) |
| --- | --- | --- | --- | --- |
| CCOC(=O)COc1ccc(Br)c2c1CCCC2C(=O)NS(=O)(=O)c1cccc2ccccc12 (stereo not drawn) [II-87] | ++ (≥150 and <350) | < 3 µM | < 50% | < 3 µM |
| O=C(C1CCCc2c(OCc3ccccc3)ccc(Br)c21)N(Cc1ccccc1)S(=O)(=O)c1cccc2ccccc12 (stereo not drawn) [II-90] | + (<150) | ≥ 10 µM | < 50% | ≥ 10 µM |
| COc1cc2c(c(OC)c1)C(C(=O)NS(=O)(=O)c1cccc3ccccc13)CCC2 (stereo not drawn) [II-94] | +++ (≥350) | < 3 µM | ≥ 150% | 3 to 10 µM |
| CCC1(C(=O)NS(=O)(=O)c2cccc(Br)c2C)CCc2c(Cl)cccc21 (stereo not drawn) [II-100] | +++ (≥350) | 3 to 10 µM | 50 to 150% | 3 to 10 µM |
| CCC1(C(=O)NS(=O)(=O)c2cccc(F)c2C)CCc2c(Cl)cccc21 (stereo not drawn) [II-101] | ++ (≥150 and <350) | < 3 µM | < 50% | < 3 µM |
| CCC1(C(=O)NS(=O)(=O)c2ccccc2COC)CCc2c(Cl)cccc21 (stereo not drawn) [II-102] | ++ (≥150 and <350) | < 3 µM | < 50% | 3 to 10 µM |
| CCC1(C(=O)NS(=O)(=O)c2cccc(F)c2F)CCc2c(Cl)cccc21 (stereo not drawn) [II-103] | + (<150) | < 3 µM | < 50% | ≥ 10 µM |
| CCC1(C(=O)NS(=O)(=O)c2ccccc2OCC(F)F)CCc2c(Cl)cccc21 (stereo not drawn) [II-104] | ++ (≥150 and <350) | < 3 µM | < 50% | < 3 µM |
| CCC1(C(=O)NS(=O)(=O)c2cccc3nccnc23)CCc2c(Cl)cccc21 (stereo not drawn) [II-105] | + (<150) | < 3 µM | < 50% | ≥ 10 µM |
| CCC1(C(=O)NS(=O)(=O)c2cccc(Cl)c2F)CCc2c(Cl)cccc21 (stereo not drawn) [II-106] | ++ (≥150 and <350) | < 3 µM | < 50% | ≥ 10 µM |
| CCC1(C(=O)NS(=O)(=O)c2cccc(Cl)c2Cl)CCc2c(Cl)cccc21 (stereo not drawn) [II-107] | ++ (≥150 and <350) | < 3 µM | < 50% | < 3 µM |
| CCC1(C(=O)NS(=O)(=O)c2cn(C)c3ccccc23)CCc2c(Cl)cccc21 (stereo not drawn) [II-108] | +++ (≥350) | < 3 µM | 50 to 150% | 3 to 10 µM |
| CCC1(C(=O)NS(=O)(=O)c2cccc(C3CCC3)c2C)CCc2c(Cl)cccc21 (stereo not drawn) [II-112] | ++ (≥150 and <350) | < 3 µM | < 50% | 3 to 10 µM |
| CCC1(C(=O)NS(=O)(=O)c2cccc3cnccc23)CCc2c(Cl)cccc21 (stereo not drawn) [II-113] | +++ (≥350) | < 3 µM | ≥ 150% | 3 to 10 µM |
| COc1cccc2c1C(C(=O)NS(=O)(=O)c1cccc3ccccc13)C2 (stereo not drawn) [II-114] | +++ (≥350) | 3 to 10 µM | ≥ 150% | 3 to 10 µM |
| COc1ccc(Br)c2c1C(C(=O)NS(=O)(=O)c1cccc3cccnc13)CC2 (stereo not drawn) [II-116] | +++ (≥350) | 3 to 10 µM | ≥ 150% | 3 to 10 µM |
| COc1ccc(Br)c2c1C(C(=O)NS(=O)(=O)c1ccc(F)c3ncccc13)CC2 (stereo not drawn) [II-117] | +++ (≥350) | < 3 µM | ≥ 150% | 3 to 10 µM |
| CCC1(C(=O)NS(=O)(=O)c2cccc3ccccc23)Cc2cccc(OC)c21 (stereo not drawn) [II-118] | +++ (≥350) | < 3 µM | ≥ 150% | 3 to 10 µM |
| CCOc1ccc2c(S(=O)(=O)NC(=O)C3CCc4c(Br)ccc(OC)c43)cccc2n1 (stereo not drawn) [II-123] | +++ (≥350) | 3 to 10 µM | ≥ 150% | 3 to 10 µM |
| CCC1(C(=O)NS(=O)(=O)c2cccc(N3CCCCC3)c2C)CCc2c(Cl)cccc21 (stereo not drawn) [II-125] | +++ (≥350) | 3 to 10 µM | 50 to 150% | 3 to 10 µM |
| CCC1(C(=O)NS(=O)(=O)c2cccc(N3CC(F)(F)C3)c2C)CCc2c(Cl)cccc21 (stereo not drawn) [II-126] | +++ (≥350) | 3 to 10 µM | 50 to 150% | 3 to 10 µM |
| CCC1(C(=O)NS(=O)(=O)c2cccc(N3CCC(F)(F)C3)c2C)CCc2c(Cl)cccc21 (stereo not drawn) [II-127] | +++ (≥350) | < 3 µM | 50 to 150% | 3 to 10 µM |

The next lines start with the values.

| Maximum % activity (with co-corrector) (F508delCFTR [1]) | EC50 (F508delCFTR [1]) | Emax (F508delCFTR [2]) | EC50 (F508delCFTR [2]) | SMILES |
| --- | --- | --- | --- | --- |
| +++ (≥350) | < 3 µM | 50 to 150% | 3 to 10 µM | O=C(NS(=O)(=O)c1cccc2ccccc12)C1CCCc2c(OC3CCCC3)ccc(Br)c21 (stereo not drawn) [II-88] |
| ++ (≥150 and <350) | 3 to 10 µM | 50 to 150% | 3 to 10 µM | O=C(NS(=O)(=O)c1cccc2ccccc12)C1CCCc2c(OCc3ccccc3)ccc(Br)c21 (stereo not drawn) [II-89] |
| +++ (≥350) | < 3 µM | 50 to 150% | 3 to 10 µM | O=C(NS(=O)(=O)c1cccc2ccccc12)C1CCCc2c(OC3COC3)ccc(Br)c21 (stereo not drawn) [II-91] |
| ++ (≥150 and <350) | < 3 µM | < 50% | 3 to 10 µM | O=C(NS(=O)(=O)c1cccc2ccccc12)C1CCCc2c(OC3CCOCC3)ccc(Br)c21 (stereo not drawn) [II-92] |
| + (<150) | < 3 µM | < 50% | ≥ 10 µM | CC(C)(O)COc1ccc(Br)c2c1CCCC2C(=O)NS(=O)(=O)c1cccc2ccccc12 (stereo not drawn) [II-93] |
| +++ (≥350) | < 3 µM | ≥ 150% | < 3 µM | COc1ccc(/C=C/c2ccccc2)c2c1CCCC2C(=O)NS(=O)(=O)c1cccc2ccccc12 (stereo not drawn) [II-96] |
| +++ (≥350) | < 3 µM | ≥ 150% | < 3 µM | COc1ccc(-c2cccc3c2OC(F)(F)O3)c2c1CCCC2C(=O)NS(=O)(=O)c1cccc2ccccc12 (stereo not drawn) [II-97] |
| +++ (≥350) | < 3 µM | ≥ 150% | < 3 µM | COc1ccc(-c2ccc(C)cc2F)c2c1CCCC2C(=O)NS(=O)(=O)c1cccc2ccccc12 (stereo not drawn) [II-98] |
| +++ (≥350) | < 3 µM | ≥ 150% | < 3 µM | COc1ccc(-c2ccccc2Oc2ccccc2)c2c1CCCC2C(=O)NS(=O)(=O)c1cccc2ccccc12 (stereo not drawn) [II-99] |
| +++ (≥350) | 3 to 10 µM | ≥ 150% | 3 to 10 µM | COc1ccc(CCC2OCCCO2)c2c1C(C(=O)NS(=O)(=O)c1cccc3ccccc13)CCC2 (stereo not drawn) [II-109] |
| +++ (≥350) | < 3 µM | ≥ 150% | 3 to 10 µM | COc1ccc(C#N)c2c1C(C(=O)NS(=O)(=O)c1cccc3ccccc13)CC2 (stereo not drawn) [II-110] |
| +++ (≥350) | < 3 µM | ≥ 150% | 3 to 10 µM | COc1ccc(C#N)c2c1C(C(=O)NS(=O)(=O)c1cccc3ccccc13)CCC2 (stereo not drawn) [II-111] |
| +++ (≥350) | 3 to 10 µM | ≥ 150% | 3 to 10 µM | COc1ccc(-c2cccc(OC(F)(F)F)c2)c2c1C(C(=O)NS(=O)(=O)c1cccc3ccccc13)CCC2 (stereo not drawn) [II-119] |
| ++ (≥150 and <350) | 3 to 10 µM | < 50% | 3 to 10 µM | COc1ccc(/C=C/c2ccccc2)c2c1C(C(=O)NS(=O)(=O)c1cccc3ccccc13)CCC2 (stereo not drawn) [II-120] |
| +++ (≥350) | < 3 µM | ≥ 150% | 3 to 10 µM | COc1ccc(C2=CCOCC2)c2c1C(C(=O)NS(=O)(=O)c1cccc3ccccc13)CCC2 (stereo not drawn) [II-121] |
| +++ (≥350) | < 3 µM | ≥ 150% | 3 to 10 µM | COc1ccc(-c2ccc(C)nc2)c2c1CCCC2C(=O)NS(=O)(=O)c1cccc2ccccc12 (stereo not drawn) [II-122] |
| +++ (≥350) | < 3 µM | ≥ 150% | < 3 µM | COc1ccc(N2CCCC2)c2c1C(C(=O)NS(=O)(=O)c1cccc3ccccc13)CCC2 (stereo not drawn) [II-124] |
| +++ (≥350) | < 3 µM | ≥ 150% | < 3 µM | COc1ccc(-c2ccc(C(F)(F)F)nc2)c2c1CCCC2C(=O)NS(=O)(=O)c1cccc2ccccc12 (stereo not drawn) [II-129] |
| +++ (≥350) | < 3 µM | ≥ 150% | < 3 µM | COc1ccc(C2=CCOCC2)c2c1CCCC2C(=O)NS(=O)(=O)c1cccc2ccccc12 (stereo not drawn) [II-130] |
| +++ (≥350) | < 3 µM | ≥ 150% | < 3 µM | COc1ccc(-c2ccc(C3CC3)nc2)c2c1CCCC2C(=O)NS(=O)(=O)c1cccc2ccccc12 (stereo not drawn) [II-131] |
